In the NIST ThermoML archive (doi:10.1021/je049801y) one finds Normal melting temperature data, which are given here for four molecules.

± gives the expanded uncertainty stated by the source.

The conditions of this data set: Crystal.
Turning to `Cc1ccc(C(=O)O)cc1` [4-methylbenzoic acid], the Normal melting temperature came out at 182.0 ± 1 °C.
The figure for `O=C(O)c1ccccc1` [benzoic acid] is 122.4 ± 1 °C.
With `O=C(O)c1cccc(C(=O)O)c1` [1,3-benzenedicarboxylic acid], the Normal melting temperature turned out to be 348.1 ± 1 °C.
For the molecule `O=C(O)c1ccc(C(=O)O)cc1` [1,4-benzenedicarboxylic acid], the Normal melting temperature came to 430.0 ± 1 °C.
